We go through nine molecules from US8962608B2, “Cycloalkylnitrile pyrazole carboxamides as janus kinase inhibitors” (Merck Sharp & Dohme Corp., priority 2011, dated 2015).

The IC50 is the concentration that gives 50% inhibition.

Assay [1] has as its target JAK1 (recombinant purified GST-tagged catalytic domain) (Homo sapiens (Human), UniProt P23458). In words: biochemical.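 Note: biochemical assay with HTRF read-out.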
The target of assay [2] is JAK2 (recombinant purified GST-tagged catalytic domain) (Homo sapiens (Human), UniProt O60674). In words: biochemical.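 Note: biochemical JAK kinase assay with HTRF detection.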

The structures appear in SMILES notation.

Chain of JAK1 (recombinant purified GST-tagged catalytic domain) (P23458 875-1153): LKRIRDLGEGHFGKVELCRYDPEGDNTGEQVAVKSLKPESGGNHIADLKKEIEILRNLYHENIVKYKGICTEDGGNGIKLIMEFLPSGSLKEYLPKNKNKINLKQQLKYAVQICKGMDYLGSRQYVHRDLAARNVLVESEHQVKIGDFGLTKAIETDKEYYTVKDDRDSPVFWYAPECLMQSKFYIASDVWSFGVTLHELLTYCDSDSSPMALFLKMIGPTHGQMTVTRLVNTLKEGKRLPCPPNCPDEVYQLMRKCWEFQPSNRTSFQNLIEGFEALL
Chain of JAK2 (recombinant purified GST-tagged catalytic domain) (O60674 849-1124): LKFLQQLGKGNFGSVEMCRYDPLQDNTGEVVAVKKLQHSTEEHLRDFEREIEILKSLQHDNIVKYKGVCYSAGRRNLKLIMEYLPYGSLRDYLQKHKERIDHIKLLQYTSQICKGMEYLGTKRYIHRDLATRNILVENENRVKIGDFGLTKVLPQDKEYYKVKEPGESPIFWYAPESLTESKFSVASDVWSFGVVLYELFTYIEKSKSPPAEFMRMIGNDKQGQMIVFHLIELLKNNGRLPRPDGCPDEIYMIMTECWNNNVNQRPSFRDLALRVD

As to `N#C[C@H]1C[C@@H](O)CC[C@@H]1n1cc(C(N)=O)c(Nc2ccc(C(F)F)nc2)n1` (single isomer, unassigned) [Example 33-8, 1-[(1S,2S,4S or 1R,2R,4R)-2-cyano-4-hydroxycyclohexyl)-3-{I6-(difluoromethyl)pyridin-3-yl]amino}-1H-pyrazole-4-carboxamide], the IC50 is 8 nM in assay [1] and 33 nM in assay [2].
For `N#C[C@H]1C[C@@H](O)CC[C@@H]1n1cc(C(N)=O)c(Nc2ccc(C(F)(F)F)nc2)n1` (single isomer, unassigned) [Example 33-9, 1-[(1S,2S,4S or 1R,2R,4R)-2-cyano-4-hydroxycyclohexyl]-3-{[6-(trifluoromethyl)pyridin-3-yl]amino}-1H-pyrazole-4-carboxamide], in that order: 21 nM and 65 nM.
As to `N#C[C@H]1C[C@@H](O)CC[C@@H]1n1cc(C(N)=O)c(Nc2ccc([C@H](O)C(F)(F)F)cc2)n1` (single isomer, unassigned) [Example 33-10, 1-[(1S,2S,4S or 1R,2R,4R)-2-cyano-4-hydroxycyclohexyl]-3-({4-[(1S)-2,2,2-trifluoro-1-hydroxyethyl]phenyl}amino)-1H-pyrazole-4-carboxamide], the values for the IC50 in assay [1] and in assay [2] were 0.3 nM and 2 nM, respectively.
Turning to `N#C[C@H]1C[C@@H](O)CC[C@@H]1n1cc(C(N)=O)c(Nc2ccc([C@@H](O)C(F)(F)F)cc2)n1` (single isomer, unassigned) [Example 33-11, 1-[(1S,2S,4S or 1R,2R,4R)-2-cyano-4-hydroxycyclohexyl]-3-({4-[(1R or 1S)-2,2,2-trifluoro-1-hydroxyethyl]phenyl}amino)-1H-pyrazole-4-carboxamide], the figures for the IC50 in assay [1] and in assay [2] were 0.45 nM and 3 nM, respectively.
Consider `CC(C)(c1ccc(Nc2nn([C@H]3CC[C@H](O)C[C@@H]3C#N)cc2C(N)=O)cc1)C(O)C(F)(F)F` (single isomer, unassigned) [Example 33-15, 1-[(1S,2S,4S or 1R,2R,4R)-2-cyano-4-hydroxycyclohexyl]-3-{[4-(3,3,3-trifluoro-(2R or 2S)-hydroxy-1,1-dimethylpropyl)phenyl]amino}-1H-pyrazole-4-carboxamide], for which the IC50 stood at 0.5 nM in assay [1] and 2 nM in assay [2].
Consider `CC(C)(c1ccc(Nc2nn([C@H]3CC[C@H](O)C[C@@H]3C#N)cc2C(N)=O)cc1)C(O)C(F)(F)F` (single isomer, unassigned) [Example 33-16, 1-[(1S,2S,4S or 1R,2R,4R)-2-cyano-4-hydroxycyclohexyl]-3-{[4-(3,3,3-trifluoro-(2R or 2S)-hydroxy-1,1-dimethylpropyl)phenyl]amino}-1H-pyrazole-4-carboxamide], for which the IC50 worked out at 0.7 nM in assay [1] and 3 nM in assay [2].
For `N#C[C@H]1C[C@@H](O)CC[C@@H]1n1cc(C(N)=O)c(Nc2ccc(Cl)c(Cl)c2)n1` (single isomer, unassigned) [Example 33-20, 1-[(1S,2S,4S or 1R,2R,4R)-2-cyano-4-hydroxycyclohexyl]-3-[(3,4-dichlorophenyl)amino]-1H-pyrazole-4-carboxamide] the same measures were 2 nM and 20 nM.
Consider `CC(C)(O)C1CN(C(=O)[C@@H]2CC[C@@H](n3cc(C(N)=O)c(Nc4ccc(Cl)cc4)n3)[C@H](C#N)C2)C1` (single isomer, unassigned) [Example 35-3, 3-[(4-chlorophenyl)amino]-1-[(1R,2R,4R or 1S,2S,4S)-2-cyano-4-{[3-(1-hydroxy-1-methylethyl)azetidin-1-yl]carbonyl}cyclohexyl]-1H-pyrazole-4-carboxamide], for which the IC50 in assay [1] was 9 nM; in assay [2] it was 59 nM.
As to `N#C[C@@H]1C[C@H](C(=O)NC(C2CC2)C2CC2)CC[C@H]1n1cc(C(N)=O)c(Nc2ccc(Cl)cc2)n1` (single isomer, unassigned) [Example 35-5, 3-[(4-chlorophenyl)amino]-1-{(1R,2R,4R or 1S,2S,4S)-2-cyano-4-[(dicyclopropylmethyl)carbamoyl]cyclohcxyl}-1H-pyrazole-4-carboxamide], the IC50 in assay [1] is 13 nM; in assay [2], 169 nM.
